Like-named read-outs stand apart in the source and are kept apart here. * marks the point of attachment. Cbz = O=C(OCc1ccccc1)*; CH2F = FC*
What was measured:
[1] = tested on: dopaminergic neuronal cells; assay: MPP+ induced DNA fragmentation (genomic DNA fragmentation assay); type: cell-based
Source text: (§1) The ability of a PKCd inhibitor to decrease PKCd activity, for example, neurodegeneration or apoptotic activity, can be assessed using standard techniques known to one skilled in the art, including commercially available assays. These include apoptotic DNA Ladder assays, Cell Death Detection ELISA^PLUS (from Roche Applied Sciences), Caspase-3 Activity Assay^PLUS (from Roche Applied Sciences), terminal deoxynucleotidyl transferase-mediated dUTP [deoxy-uridine triphosphate] nick end labeling (TUNEL) assays. DNA-binding dyes or stains such as […] or DAPI or propidium iodide may be used to assess nuclear morphology and DNA damage. Kaul S, Kanthasamy A, Kitazawa M, Anantharam V, Kanthasamy A G, Caspase-3 dependent proteolytic activation of protein kinase C delta mediates and regulates 1-methyl-4-phenylpyridinium (MPP^+)-induced apoptotic cell death in dopaminergic cells: relevance to oxidative stress in dopaminergic degeneration. Eur J Neurosci. 2003 September; 18(6):1387-401.

[2] = tested on: dopaminergic neuronal cells; assay: 6-OHDA-induced DNA fragmentation (genomic DNA fragmentation assay); type: cell-based
Source text: as §1

N-benzyloxycarbonyl-Asp(OMe)-Ile-Pro-Asp(OMe)-FMK (Cbz-D(OMe)IPD(OMe)-CH2F; SMILES CC[C@H](C)[C@H](NC(=O)[C@H](CC(=O)OC)NC(=O)OCc1ccccc1)C(=O)N1CCC[C@H]1C(=O)N[C@@H](CC(=O)OC)C(=O)CF; listed as Homo sapiens)
MPP+ induced DNA fragmentation [1]: inhibited
6-OHDA-induced DNA fragmentation [2]: effectively blocked
6-OHDA-induced DNA fragmentation ([2]; concentration as low as 3 μM): almost completely inhibits
